Results reported in patent publication US20190029928A1, “Fibrous Structures Comprising Malodor Reduction Compositions” (The Procter & Gamble Company, priority 2017, published 2019).
Several values for one entry are separate records, joined by “and”; a condition that tells them apart may be missing. Identical values can stand only once. Like-named read-outs stand apart in the source and are kept apart here.

Description: The first step in the method for assigning a BI to a test sample material on the BI reference scale is to create the BI reference swatches. […] Fabric swatches for this test are white knit polycotton (4 inch×4 inch) swatches from EMC ordered as PC 50/50. The supplier is instructed to strip the swatches first, stripping involves washing twice with a fragrance-free detergent and rinsing three times.
Making the BI Reference Swatches
The BI scale contains one clean swatch with no malodor applied. […] These solutions are pipetted to the middle of the swatches. […] After drying for 30 minutes in a vented hood, the swatches are wrapped in aluminum foil to prevent odor contamination to the treated swatch. A clean untreated swatch is also included as the lowest anchor point of reference for malodor strength on the BI scale. The BI reference scale swatches should be used within 0.5 to 12 hours and discarded after 12 hours. The swatches are used as scale anchor points when graders evaluate a test sample(s) and are assigned a Blocker Index (BI) as show in Table 11 below.
The perfumer/expert grader is asked to rank order swatches according to a scale between 0 and 3.

## CC(C)CC(=O)O [isovaleric acid]
2 μL 0.08% isovaleric acid, all graders (Table 11)
  BI rank Ave: 1.0
Stripped swatch with 2 μL 0.08% isovaleric acid
  BI rank by individual expert grader: 0.5 and 2.0 and 1.0
Stripped swatch with 5 μL 0.08% isovaleric acid
  BI rank by individual expert grader: 2.0 and 2.5
Stripped swatch with 20 μL 0.08% isovaleric acid
  BI rank by individual expert grader: 3.0 and 2.5
